Where a name gives a salt, the structure may show the parent alone.
Columns and labels:
[1] = system: P388/0 tumor cells; test: Lymphocytic Leukemia P388/0 Test; type: in vivo, CD2-F1 mice; conditions: median survival time; intraperitoneal, days 1, 5, 9; active if ≥120%; Optimal Dose (mg/kg): 2A 250; 2B 450; 3 120; 4 200; 5A 303; 6 366; 7 220; 8 300; 1A 300; 10 198; 11 300; 13 220; 15 555; 16 1013; 17B 250; 18 300; 19 40; 20G 125; 21C 168; 22D 180; 23B 18O
Source text: (§1) Methods for evaluating the antitumor activity of these compounds are essentially those used in the Tumor Panel by the Development Therapeutics Program, Division of Cancer Treatment, National Cancer Institute, A. Goldin, et al., Methods in Cancer Research, Vol. XVI, p. 165, Academic Press (1979). Some modifications in dose level and schedule have been made to increase the testing efficiency.
(§2) CD2-F1 mice, of the same sex, weighing 20±3 g, are used for this test. Control and test animals are injected intraperitoneally with a suspension of ~10^6 viable P388/0 tumor cells on day 0. In each test, several dose levels which bracket the LD20 of the compound are evaluated; each dose level group contains 6 animals. The test compounds are prepared either in physiologic saline containing 0.05% Tween 80 or distilled water containing 5% dextrose and are administered intraperitoneally on days 1, 5, and 9 relative to tumor implant. Doses are on a mg/kg basis according to individual animals' body weights. The day of death for each animal is recorded, the median identified for each group and the ratios of median survival time for treated (T)/control (C) groups are calculated. The criterion for activity is T/C×100≥120%.

[2] = LD20 in the P388/0 test; type: in vivo, CD2-F1 mice; conditions: intraperitoneal, days 1, 5, 9; doses are on a mg/kg basis
Experimental: as §2

[3] = system: L1210 cells; test: Lymphocytic Leukemia L1210 Test; type: in vivo, CD-2-F1 mouse; conditions: 150 mg/kg; protocol as P388/0 (intraperitoneal, days 1, 5, 9); active if ≥125%
Source text: as §1, §2
The protocol for this test is identical to that for P388/0, except that the number of L1210 cells implanted on day 0 is ~105/mouse. […]

[4] = system: Mycoplasma smegmatis (S3264); test: Antibacterial screening, Mycoplasma smegmatis, agar dilution assay; type: cell-based
Source text: Antibacterial testing against Mycoplasma smegmatis (S3264) and Streptococcus pyogens (CN10) was done with slight modifications using standard agar dilution assays as outlined in Manual of Clinical Microbiology, Second Ed., E. H. Lennette, E. H. Spaulding and J. P. Truant Eds., American Society for Microbiology, Washington, DC, 1974.

[5] = system: Candida albicans (CN1863); test: Antifungal screening, Candida albicans, broth and agar dilution assays; type: cell-based; conditions: Medium: Wellcotest sensitivity test agar plus 7% lysed horse blood
Source text: Antifungal testing against Candida albicans (CN1863) was done with slight modifications using a combination of broth and agar dilution assays as outlined in Laboratory Handbook of Medical Mycology, Chapter 6, pages 441-446, M. R. McGinnis, Academic Press, New York, NY, 1980.
Medium: Wellcotest* sensitivity test agar plus 7% lysed horse blood.

[6] = system: Trichomonas vaginalis; test: Antiprotozoal testing, Trichomonas vaginalis (in vitro); type: cell-based; conditions: 40 mg/L, Stenton or Modified Diamond's medium, read-out: Result (screen code, inhibition)
Source text: Antiprotozoal testing against Trichomonas vaginalis was done using methods outlined by R. M. Michaels in Advances in Chemotherapy, 3, 39-108 (1968).
(Stenton or Modified Diamond's medium)

[7] = system: Nippostrongylus brasiliensis (Immature - free living stages); test: Anthelmintic screening, Nippostrongylus brasiliensis; type: cell-based
Source text: Anthelmintic testing against Nippostrongylus brasiliensis was done using methods as outlined in D. C. Jenkins, R. Armitage, and T. S. Carrington, Zetschrift fur Parasitenkunde 63, 261-269 (1980).

[8] = LD50 Tests; conditions: in vivo; IP single dose - CD1 Male Mouse
Source text: |(IP single dose - CD1 Male Mouse)

[9] = system: Lewis Lung Carcinoma; test: Lewis Lung Carcinoma Test; type: in vivo, mouse (BD-F1 mice; tumor from C57B1/6 mouse); conditions: 150 mg/kg; administered as in P388/0 protocol; active if ≥140%
Source text: as §1
This tumor arose spontaneously in the lung of a C57B1/6 mouse and is maintained by subcutaneous passage in that strain. The solid tumor is excised aseptically and placed in sterile saline. Pieces of viable tumor tissue are minced finely with scissors and forced through a 200 mesh stainless steel screen to disaggregate the tumor cells into a suspension. 10^6 Viable cells and injected intravenously into the tail vein of BD-F1, mice of the same sex weighing 20±3 g. In each test, several dose levels which bracket the LD20 for the compound are evaluated. Ten animals are included in each dose level group, and twenty animals in the untreated control group. The test compounds are prepared and aministered as in the P388/0 protocol. The day of death for each animal is recorded, the median identified for each group and the ratios of median survival time for treated (T)/control (C) groups are calculated. The criterion for activity is T/C×100≥140%.

Molecule | T/C × 100% (Excluding 30 Day Survivors) [1] | LD20 [2] | T/C × 100% Excluding 30 day Survivors [3] | MIC [4] [µg/mL] | MIC [5] [µg/mL] | inhibition at 40 µg/mL [6] [%] | MIC [7] [µg/mL] | LD50 [8] [mg/kg] | T/C × 100% Excluding 60 day Survivors [9] [%]
2-((6-Bromo-1-pyrenylmethyl)amino)-2-methyl-1,3-propanediol hydrochloride and 2-((8-Bromo-1-pyrenylmethyl)amino)-2-methyl-1,3-propanediol hydrochloride [Example 17B] | +135% | 557 | – | – | – | – | – | – | –
CC(CO)(CO)NCc1ccc2ccc3cccc4ccc1c2c34 [Example 1A, 2-methyl-2-((1-pyrenylmethyl)amino)-1,3-propanediol hydrochloride] | – | 375 | +129% | ≤ 5 | 50 | 76 to 100 | 50 | 350 | –
CC(CO)(CO)NCc1ccc2ccc3cccc4ccc1c2c34 [Example 1B, 2-methyl-2-((1-pyrenylmethyl)amino)-1,3-propanediol methanesulfonate] | – | – | – | – | – | – | – | – | 208

— patent US4820873A, “Pyrene derivatives” (priority 1984, dated 1989)
